From patent publication US7612086B2, “JNK inhibitors” (Eisai R & D Management Co. Ltd., priority 2003, dated 2009)

The compounds below were run against JNK3 kinase (Homo sapiens, UniProt P53779) (assay: JNK3 SPA assay (phosphorylation of GST-c-Jun)). Settings: 3.33 μM ATP, [γ-33P] ATP, GST-c-Jun substrate, 30 minutes at room temperature.
Assay type: biochemical
Description: JNK1, JNK2, JNK3—SPA Assay
• 1. Compound is dissolved in DMSO to a convenient concentration and this is diluted in 10% DMSO to a five times concentrate of the desired starting concentration (frequently 1:100). • 2. 10 μl of 500 mM EDTA is added to alternative wells of the Opti-plate row, which will receive kinase reaction plus DMSO. This creates the negative control. • 3. For the JNK2 and JNK3 assay, compounds are prepared in six 2-fold dilutions with water and each concentration is tested in duplicate. For the JNK1 assay compounds are prepared in four 5-fold dilutions with water which are tested in triplicate. Controls are treated identically. • 4. 20 μl per well of each compound concentration is transferred to an Opti-plate, in duplicate. • 5. 30 μl (JNK2/3 SPA) or 50 μl (JNK1 SPA) of substrate solution (25 mM HEPES pH 7.5, 10 mM magnesium acetate with 3.33 μM ATP (JNK2/3) or 2 μM ATP (JNK1), approximately 7.5 kBq [γ-^33P] ATP, GST-c-Jun, in water) is added to each well. • 6. 50 μl (JNK2/3 SPA) or 30 μl (JNK1 SPA) of kinase solution (JNK in 25 mM HEPES pH 7.5, 10 mM Mg Acetate) is added to each well.
• 7. The plate is incubated for 30 minutes at room temperature. • 8. 100 μl of bead/stop solution is added to each well (5 mg/ml glutathione-PVT-SPA beads, 40 mM ATP in PBS). • 9. Plates are sealed and incubated for 30 minutes at room temperature, centrifuged for 10 minutes at 2500 g and counted. • 10. The IC50 values are calculated as the concentration of the compound being tested at which the phosphorylation of c-Jun is decreased to 50% of the control value.

JNK3 kinase, sequence (P53779 whole entry): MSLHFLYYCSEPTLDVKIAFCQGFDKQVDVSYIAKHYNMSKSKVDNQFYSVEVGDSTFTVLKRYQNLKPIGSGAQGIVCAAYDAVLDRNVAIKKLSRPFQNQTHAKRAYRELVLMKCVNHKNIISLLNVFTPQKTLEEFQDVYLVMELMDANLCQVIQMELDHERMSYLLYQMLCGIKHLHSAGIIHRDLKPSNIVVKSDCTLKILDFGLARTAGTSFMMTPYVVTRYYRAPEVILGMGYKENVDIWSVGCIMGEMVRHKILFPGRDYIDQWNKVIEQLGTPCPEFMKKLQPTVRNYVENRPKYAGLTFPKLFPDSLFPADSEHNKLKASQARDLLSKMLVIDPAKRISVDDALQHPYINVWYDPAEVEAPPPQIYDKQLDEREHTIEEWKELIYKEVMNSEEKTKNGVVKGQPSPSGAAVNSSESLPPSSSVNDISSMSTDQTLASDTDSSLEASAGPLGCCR

Row | IC50 | SMILES
1 | < 500 nM | N#Cc1c[nH]c2ncc(-c3ccccc3F)cc12
2 | < 500 nM | CN(C)c1ccc(-c2cnc3[nH]cc(C#N)c3c2)cc1
3 | < 500 nM | C#Cc1c[nH]c2ncc(-c3ccc(N(C)C)cc3)cc12
4 | < 500 nM | CCCNC(=O)C#Cc1c[nH]c2ncc(-c3ccccc3Oc3ccccc3)cc12
